# A melting point compilation (Tetko et al.; mined from patent text by program, amines drawn as free bases though some values may be those of a salt)
# Residues, ends and D or L forms follow the SMILES beside them. *: point of attachment. Cbz = O=C(OCc1ccccc1)*
row,Compound,melting point
1,c1ccc(Nc2nc(-c3ccco3)nc3ccccc23)cc1,183 to 184 °C
2,CCOC1=Nc2nc(C(C)(C)C)[nH]c2C2=N[C@H](Cc3ccccc3)CN12,220 to 222 °C
3,COc1cc(Nc2c(C#N)cnc3cc(Cl)c([N+](=O)[O-])cc23)c(C)cc1Cl,217 to 219 °C
4,O=C(O)c1ccc2c(c1)OC(c1cccc(Cl)c1)(c1cccc(Cl)c1)O2,166 °C
5,CC(=O)Nc1ccc(Oc2c([N+](=O)[O-])cc(C(=O)O)cc2S(=O)(=O)NC(C)=O)cc1,305 to 306 °C
6,CCCCC[C@@H](CNC(=O)Nc1c(N2CCOCC2)ncnc1N1CCOCC1)c1cccc2c1OCO2,128 to 132 °C
7,O=S(=O)(NC1CCCCC1)c1ccc(Nc2nccc(N3CCCc4c(O)cccc43)n2)cc1,236 to 238 °C
8,CC(C)(C)OC(=O)NCCc1ccnc(-c2nc(=O)c3ccc(Cl)cc3s2)c1,168 to 169 °C
9,COc1ccc(N2CCN(c3c(C)c(C)c4c(c3C)CC(C)(CN)O4)CC2)cc1 (stereo not drawn),134 to 137 °C
10,CCOC(=O)CCc1cc(CCC(=O)O)cc(Cc2cccnc2)c1,62 to 64 °C
11,CCOc1ccc(C(C)=NOCCO)cc1,51 to 54 °C
12,O=C(O)c1ccc(CCCC2SCC(=O)N2C/C=C\C2(O)CCCCC2)cc1 (stereo not drawn),118 to 120 °C
13,CC1(C)CCc2c(-c3ccoc3)nc3sc4c(NCc5cccnc5)ncnc4c3c2C1,247 to 248 °C
14,CCOP(=O)(O)Cc1ccc(NC(=O)N2CCN(c3ccc(NC(=O)Nc4cc(C)ccc4OC)cc3)CC2)c(C)c1,165 to 173 °C
15,O=C(O)C(O)c1ccc2nc(-c3ccc(Cl)cc3)oc2c1 (stereo not drawn),222 to 224 °C
16,CCOC(=O)c1ccc(NC(=O)C(C)C)c([N+](=O)[O-])c1,74 to 76 °C
17,Cc1c(-c2ccccc2Cl)sc2nc(N)[nH]c(=O)c12,334 to 336 °C
18,CC(C)n1nc(-c2sc(NC(=O)c3ccccc3Cl)nc2-c2ccccc2)ccc1=O,220 to 221 °C
19,c1ccc(CN2CCN(c3ccnc4[nH]ccc34)CC2)cc1,175 °C
20,CC(C=CO)c1ccc(-c2ccc(Cl)cc2)cc1 (stereo not drawn),130 to 132 °C
21,COc1cccc2c1OCN(CCc1ccccc1)C2,63 to 66 °C
22,COc1cccn2c(=O)c(CCN3CCC(c4noc5cc(F)ccc45)CC3)c(C)nc12,209 °C
23,COC(=O)c1csc2c(=O)cc(C3CCCCC3)oc12,114 to 119 °C
24,Cc1sc2c(Sc3ccccc3)c3ccccc3c(-c3cc(Br)c(O[C@H](C)C(=O)O)c(Br)c3)c2c1C,237 to 239 °C
25,Nc1sc2c(c1C(=O)c1ccc(Cl)s1)CCN(Cc1ccccc1)C2,81 to 83 °C

row,Compound,melting point
1,COC(=O)[C@@H]1[C@H](c2ccccc2)CC(=O)N1C,100 °C
2,CCCCNC(=O)OCCCC(=O)c1ccccc1,52 to 58 °C
3,CCOC(=O)C1=C(C)N(C(C)=O)C(c2csc(C)n2)=NC1c1ccc(C)cc1 (stereo not drawn),187 to 188 °C
4,c1ccc(C(N=C2NCCCN2)c2ccccc2)cc1,238 to 242 °C
5,COC(=O)c1sccc1NC(=S)N1CCN(c2ncnc3cc(OC)c(OC)cc23)CC1,226 to 228 °C
6,CCCOCCOc1ccc(-c2ccc3c(c2)C=C(C(=O)Nc2ccc(CN(C)C4CCOCC4)cc2)CCS3(=O)=O)cc1OCC,171 to 172 °C
7,CNS(=O)(=O)c1sc(C)cc1CC(=O)O,138 °C
8,Cc1ccc(S(=O)(=O)N(C)c2ccc(Cl)cc2C(N)=O)cc1,176 to 178 °C
9,CN(C)C(=O)c1cnn2ccccc12,86 to 87 °C
10,CC(=O)N1C(=O)OC[C@@H]1Cc1ccccc1,106 °C
11,CCOC(=O)C(=O)NNc1ccc(NC(=S)NC)cc1,168 to 169 °C
12,O=C(O)c1cc(S(=O)(=O)N2CCC(Br)C(Br)C2)ccc1Cl (stereo not drawn),176 to 178 °C
13,N#Cc1c(Cl)cccc1CSCCNC(=O)c1c(Cl)cccc1Cl,166 to 168 °C
14,CN(C)S(=O)(=O)c1cc(-c2csc(=Nc3ccccc3)n2C)ccc1Cl,180 °C
15,COc1ccc(S(C)(=O)=O)cc1C(=O)O,189 to 191 °C
16,COC(=O)c1c(C(=O)OC)c2n(c1C)-c1ccccc1C2,162 to 164 °C
17,Cc1[nH]c(=O)c(-c2csc(-c3ccnc(NCC4CC4)c3)n2)cc1C(=O)NCC1CC1,> 260 °C
18,CC1(CSc2ccccc2)COC2(CCCCC2)OO1 (stereo not drawn),45 to 46 °C
19,Cc1nc2c(Cl)c(NC(=O)c3cc(Cl)ccc3Cl)ccc2s1,175 °C
20,CC1Oc2ccc(CN3CCN(c4ccc(C(=O)O)cn4)CC3)cc2NC1=O (stereo not drawn),243 to 248 °C
21,C#CCOc1cccc(-c2nc3cnncc3[nH]2)c1OC,224 °C
22,Cc1cc2c([C@@H]3C[C@H]3CNC(=O)C3CC3)cccn2n1 (relative stereo),124 to 128 °C
23,CCCCCCCc1ccc(NS(=O)(=O)c2ccc(N3CCNC3=O)cc2)cc1,188 to 190 °C
24,Cc1cc(C(=O)Nc2ccc(OCC(C)(C)C)c(C#N)c2)n(-c2ccc(F)cc2)n1,165 °C
25,O=C(O)CS(=O)CCCCCn1nc(-c2ccccc2)c(-c2ccccc2)c1-c1ccccc1 (stereo not drawn),129 to 130 °C

row,Compound,melting point
1,C=C(Br)CCC(=O)NC(C(=O)OCC)C(=O)OCC,85 to 87 °C
2,CCOC(=O)c1sc(C)nc1OCCCc1cc(OC(C)C)nn1Cc1ccc(Cl)cc1Cl,92 to 93 °C
3,N[C@H](Cc1cccc(C(=O)c2ccccc2)c1)C(=O)O,230 to 231 °C
4,CCCCOc1c(C(OC(N)=O)C(C)(C)C)n(CC(C)(C)C)c(=O)c2ccc(OCC)cc12 (stereo not drawn),138 to 139 °C
5,CCCCOc1c(CNC(=O)OC(C)(C)C)n(CC(C)(C)C)c(=O)c2ccc(F)cc12,168 to 169 °C
6,COc1cncc(OC)c1CCCOc1cccnc1Cc1cccc(Br)c1,153 to 165 °C
7,c1ccc(CCN2CCN(Cc3nc4ccccc4[nH]3)CC2)cc1,150 to 152 °C
8,Cc1cc(NCc2ccc(Cl)cc2)nc(SCC#N)n1,99 to 101 °C
9,CCCCCC1CCc2c3c(c(F)c(F)c2O1)OC(C)C3 (stereo not drawn),76 °C
10,CCn1nc(N)nc1NCCCOc1cccc(CN2CCCCC2)c1,116 to 118 °C
11,Cc1oc(-c2ccccc2Cl)nc1CCOc1ccc(CC2SC(=O)NC2=O)cn1 (stereo not drawn),176 to 177 °C
12,O=C1Nc2ccc(Cl)cc2C1(NCCc1ccccn1)c1ccccc1Cl (stereo not drawn),178 °C
13,CC(C)(C)c1ncc(Br)cn1,50 to 51 °C
14,COc1ccc(N2CCN(c3ccc(N)cc3)CC2)cn1,111 °C
15,CCCN1N=C2C(=Cc3ccc(Cl)cc3)CS(=O)(=O)CC2C1c1ccc(Cl)cc1 (stereo not drawn),208 to 210 °C
16,COCC1(O)CCN(c2ccc(N3C[C@H](CNC(C)=O)OC3=O)cc2)CC1,152 to 154 °C
17,CCN(CC)CCNC(=O)C1N=C(c2ccccc2)c2cc(Cl)ccc2NC1=O (stereo not drawn),220 °C
18,O=C(O)Cc1c(C(=O)c2ccc(Cl)cc2Cl)[nH]c2cc(Cl)ccc12,190 to 192 °C
19,COc1ccc(-c2nc3ccc(C(=O)O)cc3nc2-c2ccc(OC)cc2)cc1,284 to 285 °C
20,COc1ccc(-c2nc3ccc(C(=O)O)cc3[nH]2)cc1C12CC3CC(CC(C3)C1)C2,358 to 359 °C
21,CCOc1cn(C)cc(-c2ccc(Cl)c(C(F)(F)F)c2)c1=O,158 to 159 °C
22,CCC(Oc1cc(Cl)cc(Cl)c1)C(=O)NCc1ccccc1C (stereo not drawn),135 to 137 °C
23,CC(=NNc1ccc(C2=NNC(=O)CC2C)cc1)c1ccncc1 (stereo not drawn),246 to 248 °C
24,COC(=O)C(CCBr)Oc1cc([N+](=O)[O-])cc2c1CCCC2 (stereo not drawn),99 to 100 °C
25,CCCC(=O)c1cnc2c(OC)csc2c1Cl,76 to 78 °C

row,Compound,melting point
1,Cc1csc(C2(c3cccs3)CCCO2)n1 (stereo not drawn),59 to 60 °C
2,Cn1c(COc2ccc(CC3SC(=O)NC3=O)cc2)nc2ccc(Oc3ccc(NC(=O)c4cc(C(C)(C)C)c(O)c(C(C)(C)C)c4)cc3)cc21 (stereo not drawn),160 to 162 °C
3,C=CCCCCS(=O)(=O)C[C@@H](C)C(=O)O,51 to 54 °C
4,Cn1nc(C(F)(F)F)cc1Oc1cccc(C(=O)NCC(F)(F)F)n1,136 °C
5,"CC1CC(=O)NN=C1c1ccc(N)cc1 (single isomer, unassigned; (-))",203 to 204 °C
6,COc1cc(OC)c2c(=O)cc(S)oc2c1C1CCN(C)CC1O (stereo not drawn),184 to 185 °C
7,CC(C)C(NS(=O)(=O)c1ccc(Cl)cc1)C(=O)Nc1ccc(CC(=O)O)cc1 (racemic),228 to 230 °C
8,COCCOc1ncccc1S(N)(=O)=O,102 to 103 °C
9,O=P(Cc1ccccc1)(C1CCCCC1)C1CCCCC1,147 to 149 °C
10,N#CC(C=O)c1cnccn1 (stereo not drawn),192 to 194 °C
11,CC(=O)c1oc2ccc(Br)cc2c1NC(=O)c1cnoc1C,206 to 208 °C
12,COC(=O)C(CC(C)C)NC(=O)C(CC(N)=O)NC(=O)OCc1ccccc1 (stereo not drawn) (Cbz-Asn-Leu-OMe; configuration not given here),191 to 193 °C
13,CC(=O)Nc1c(C(=O)c2ccc(Cl)c(Cl)c2)[nH]c2cc(Cl)ccc12,169 to 171 °C
14,O=C(O)[C@H](Cc1ccsc1)NN1C(=O)c2ccccc2C1=O,166 to 168 °C
15,COc1ccc(CCNC(=O)[C@@H](N)C(C)C)cc1OC,52 to 54 °C
16,C=CCOC(=O)C1N2C(=O)C(NC(=O)CC(=O)OCC)C2S(=O)(=O)C1(C)C (stereo not drawn),114 to 115 °C
17,CNC(=O)c1cc(Oc2ccc3c(C(=O)Nc4cccc(C(F)(F)F)c4)cccc3c2)ccn1,175 to 177 °C
18,CCCc1nc(SC2CCC(=CC(=O)O)CC2)c(C(=O)O)n1Cc1cc2c(cc1Cl)OCO2 (stereo not drawn),168 °C
19,O=C(O)COc1cccc(CCc2nc(-c3ccccc3)c(-c3ccccc3)s2)c1,118 to 120 °C
20,CCOC(=O)C(CCc1ccccc1)NC1CSC(c2ccsc2)CN(CC(=O)O)C1=O (stereo not drawn),165 °C
21,COc1ccc(-c2cc3nccnc3[nH]2)cc1OCC(=O)O,330 to 332 °C
22,O=CC(=Cc1ccc(OCc2ccc(Cl)cc2)cc1)C(C=O)=Cc1ccc(OCc2ccc(Cl)cc2)cc1,208 to 209 °C
23,COc1ccccc1Oc1c(NS(=O)(=O)c2ccc(C(C)(C)C)cc2)nc(-c2ncccn2)nc1OCCOc1ccc(C(C)=O)cc1,169 to 172 °C
